Measured values from patent publication US11298388B2, “Psychoactive alkaloid extraction and composition with controlled dephosphorylation” (PSILO SCIENTIFIC LTD, priority 2020, dated 2022).
Where two headings read alike, the source gives them in different places.

How the values were obtained:
[1] = Isoelectric point / maximum stability pH; assay type: physicochemical
Method: The pH of the partially concentrated extract of Example 1, which was an aqueous extract, was adjusted to pH 4.0 (+/−0.5) by adding 2 M phosphoric acid and centrifuged for 15 minutes at 3000 g to remove any solid precipitate. The pH of 4 corresponds to the isoelectric point of psilocybin, and psilocin's polarity is such that it is partitioned onto the resin, thus allowing effective binding of the psychoactive alkaloids psilocybin and psilocin to the macroporous resin. Norbaeocystin and baeocystin are phosphorylated and behave in the same way as psilocybin. The supernatant obtained was loaded onto a column of Amberlite® XAD4, a non-ionic macroporous resin (50.34 g of dry resin) at a flow rate of 2 bed volumes per hour, to allow components in the supernatant to be adsorbed onto the macroporous resin. After all 2.5 L of the extract was loaded onto the column of macroporous resin, the column was washed in a single pass with 5 bed volumes of reverse osmosis water at room temperature. This was followed by elution with 5 bed volumes of 5% ethanol (by weight), again at room temperature. Finally, the column was washed in a single pass with 5 bed volumes of 100% ethanol. The elution was performed at room temperature. Each of these three fractions was collected separately. The particular order for the washing steps and the elution was selected to be in the order of the polarity of the solvents. […]

[2] = cited from earlier work
[3] = Oxidation (decay) of psilocin when exposed to air, own data

| SMILES | maximum stability pH [1] | solubility ([2]; in acetone) | solubility ([2]; in ethanol) | solubility ([2]; in isopropanol) | solubility ([2]; in methanol) | solubility ([2]; in water) | decay (oxidation of psilocin) ([3]; at 20 hours when shielded from light) | decay (oxidation of psilocin) ([3]; moist and/or high light environment, after 5 hours) | decay (oxidation of psilocin) ([3]; moist and/or high light environment, within 30 minutes) |
| --- | --- | --- | --- | --- | --- | --- | --- | --- | --- |
| CN(C)CCc1c[nH]c2cccc(O)c12 [Psilocin, psilocin] | 4 | not soluble | not soluble | not soluble | soluble | soluble | 40-60% | 25% | about 10% |
| CN(C)CCc1c[nH]c2cccc(OP(=O)(O)O)c12 [Psilocybin, psilocybin] |  | not soluble | not soluble | not soluble | soluble | soluble |  |  |  |
